Laboratory results taken from PubChem BioAssay AID248 (DTP/NCI, 2004).
Where “and” joins values, the source holds several entries; their conditions need not be identical. Equal entries are not always repeated. Inconclusive results and toxic doses are left out. Cut-off read from the data, not from the text of the source: active = T/C of 150% or more; inactive = T/C below 125%.

Test system: L1210 leukemia ip in BDF1 mice, survival T/C
Assay: NCI In Vivo Anticancer Drug Screen. Data for tumor model L1210 Leukemia (intraperitoneal) in B6D2F1 (BDF1) mice
Details: endpoint: mean survival time, higher = longer survival
Summary of the method: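 Transplanted-tumor mice were given test agent; controls received vehicle only. Survival readings from the two groups were divided (treated over control).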

[1] = dose: 100.0 mg/kg/injection, schedule: Q04DX003 (ip), vehicle: saline
[2] = dose: 50.0 mg/kg/injection, schedule: Q01DX009 (ip), vehicle: Klucel (hydroxypropylcellulose) (HPC)
[3] = dose: 100.0 mg/kg/injection, schedule: Q01DX009 (ip), vehicle: Klucel (hydroxypropylcellulose) (HPC)
[4] = dose: 100.0 mg/kg/injection, schedule: Q04DX003 (ip), vehicle: Klucel (hydroxypropylcellulose) (HPC)
[5] = dose: 200.0 mg/kg/injection, schedule: Q01DX009 (ip), vehicle: Klucel (hydroxypropylcellulose) (HPC)
[6] = dose: 200.0 mg/kg/injection, schedule: Q04DX003 (ip), vehicle: Klucel (hydroxypropylcellulose) (HPC)
[7] = dose: 400.0 mg/kg/injection, schedule: Q04DX003 (ip), vehicle: Klucel (hydroxypropylcellulose) (HPC)
[8] = dose: 100.0 mg/kg/injection, schedule: Q01DX009 (ip), vehicle: saline with Tween-80
[9] = dose: 100.0 mg/kg/injection, schedule: Q04DX003 (ip), vehicle: saline with Tween-80
[10] = dose: 200.0 mg/kg/injection, schedule: Q01DX009 (ip), vehicle: saline with Tween-80
[11] = dose: 200.0 mg/kg/injection, schedule: Q04DX003 (ip), vehicle: saline with Tween-80
[12] = dose: 400.0 mg/kg/injection, schedule: Q01DX009 (ip), vehicle: saline with Tween-80
[13] = dose: 400.0 mg/kg/injection, schedule: Q04DX003 (ip), vehicle: saline with Tween-80
[14] = dose: 100.0 mg/kg/injection, schedule: Q01DX001 (ip), vehicle: carboxymethylcellulose (CMC)
[15] = dose: 100.0 mg/kg/injection, schedule: Q01DX001 (ip), vehicle: saline
[16] = dose: 100.0 mg/kg/injection, schedule: Q01DX009 (ip), vehicle: saline
[17] = dose: 100.0 mg/kg/injection, schedule: Q04DX002 (ip), vehicle: Klucel (hydroxypropylcellulose) (HPC)
[18] = dose: 200.0 mg/kg/injection, schedule: Q01DX001 (ip), vehicle: carboxymethylcellulose (CMC)
[19] = dose: 200.0 mg/kg/injection, schedule: Q01DX001 (ip), vehicle: saline
[20] = dose: 200.0 mg/kg/injection, schedule: Q01DX009 (ip), vehicle: saline
[21] = dose: 200.0 mg/kg/injection, schedule: Q04DX002 (ip), vehicle: Klucel (hydroxypropylcellulose) (HPC)
[22] = dose: 400.0 mg/kg/injection, schedule: Q01DX001 (ip), vehicle: carboxymethylcellulose (CMC)
[23] = dose: 400.0 mg/kg/injection, schedule: Q01DX001 (ip), vehicle: saline

Measured: T/C

O=[N+]([O-])c1cc([As](=O)(O)O)ccc1O
inactive: dose: 6.25 mg/kg/injection, schedule: Q04DX003 (ip), vehicle: saline 100 % of control | dose: 12.5 mg/kg/injection, schedule: Q04DX003 (ip), vehicle: saline 100 % of control | dose: 25.0 mg/kg/injection, schedule: Q04DX003 (ip), vehicle: saline 92 % of control and 100 % of control | dose: 50.0 mg/kg/injection, schedule: Q04DX003 (ip), vehicle: saline 106 % of control | [1] 105 % of control

Cc1cc(C)c(NC(=O)Nc2cccc3ccccc23)c(C)c1
inactive: dose: 25.0 mg/kg/injection, schedule: Q01DX009 (ip), vehicle: Klucel (hydroxypropylcellulose) (HPC) 95 % of control | [2] 96 % of control | [3] 96 % of control and 103 % of control | [4] 96 % of control | [5] 92 % of control | [6] 93 % of control | dose: 400.0 mg/kg/injection, schedule: Q01DX009 (ip), vehicle: Klucel (hydroxypropylcellulose) (HPC) 91 % of control | [7] 96 % of control

CC(NC(=O)NCCCl)C(O)c1ccccc1 (configuration not stated)
inactive: dose: 20.0 mg/kg/injection, schedule: Q04DX003 (ip), vehicle: Klucel (hydroxypropylcellulose) (HPC) 103 % of control | dose: 40.0 mg/kg/injection, schedule: Q04DX003 (ip), vehicle: Klucel (hydroxypropylcellulose) (HPC) 96 % of control | dose: 80.0 mg/kg/injection, schedule: Q04DX003 (ip), vehicle: Klucel (hydroxypropylcellulose) (HPC) 102 % of control | [4] 100 % of control

CC(=O)OCC(CCn1ccc(=O)[nH]c1=O)COC(C)=O
inactive: [8] 93 % of control | [9] 100 % of control | [10] 95 % of control | [11] 105 % of control | [12] 100 % of control | [13] 106 % of control

NC(CC(=O)O)C(=O)O (configuration not stated)
inactive: [14] 94 % of control | [15] 102 % of control and 95 % of control | [16] 97 % of control | [17] 98 % of control | [18] 89 % of control | [19] 96 % of control and 93 % of control | [20] 100 % of control | [21] 98 % of control | [22] 92 % of control | [23] 102 % of control and 90 % of control | dose: 400.0 mg/kg/injection, schedule: Q01DX009 (ip), vehicle: saline 97 % of control | dose: 400.0 mg/kg/injection, schedule: Q01DX030 (sc), vehicle: other 97 % of control | dose: 400.0 mg/kg/injection, schedule: Q04DX002 (ip), vehicle: Klucel (hydroxypropylcellulose) (HPC) 95 % of control | dose: 800.0 mg/kg/injection, schedule: Q01DX030 (sc), vehicle: other 96 % of control

CCOC(O)C(F)(F)F (configuration not stated)
inactive: dose: 50.0 mg/kg/injection, schedule: Q01DX015 (ip), vehicle: saline 93 % of control | [15] 98 % of control | dose: 100.0 mg/kg/injection, schedule: Q01DX009 (ip), vehicle: acetone 103 % of control | dose: 100.0 mg/kg/injection, schedule: Q01DX015 (ip), vehicle: saline 96 % of control | [19] 112 % of control | dose: 200.0 mg/kg/injection, schedule: Q01DX009 (ip), vehicle: acetone 102 % of control | dose: 200.0 mg/kg/injection, schedule: Q01DX015 (ip), vehicle: saline 88 % of control | [23] 102 % of control

O=c1[nH]cccc1[N+](=O)[O-]
inactive: [8] 95 % of control | [10] 90 % of control | [12] 95 % of control

CC(C)CCCC(=O)CCCCCCC(=O)CCN(O)C(=O)C(N)CO (configuration not stated)
inactive: dose: 12.5 mg/kg/injection, schedule: Q01DX009 (ip), vehicle: acetone 93 % of control | dose: 25.0 mg/kg/injection, schedule: Q01DX009 (ip), vehicle: acetone 102 % of control | dose: 25.0 mg/kg/injection, schedule: Q04DX003 (ip), vehicle: acetone 95 % of control | dose: 50.0 mg/kg/injection, schedule: Q04DX003 (ip), vehicle: acetone 103 % of control | dose: 100.0 mg/kg/injection, schedule: Q01DX001 (ip), vehicle: acetone 97 % of control

CC(=O)C(C)=O
inactive: [9] 95 % of control | [11] 101 % of control | [13] 106 % of control

COc1ccc(Cl)cc1NC(=O)OCC(Cl)(Cl)Cl
inactive: dose: 100.0 mg/kg/injection, schedule: Q01DX001 (ip), vehicle: saline with Tween-80 95 % of control | [8] 100 % of control and 102 % of control | dose: 100.0 mg/kg/injection, schedule: Q04DX002 (ip), vehicle: saline with Tween-80 93 % of control and 91 % of control | [9] 103 % of control | dose: 200.0 mg/kg/injection, schedule: Q01DX001 (ip), vehicle: saline with Tween-80 94 % of control | [10] 96 % of control and 115 % of control | dose: 200.0 mg/kg/injection, schedule: Q04DX002 (ip), vehicle: saline with Tween-80 94 % of control and 101 % of control | [11] 94 % of control | dose: 400.0 mg/kg/injection, schedule: Q01DX001 (ip), vehicle: saline with Tween-80 94 % of control | [12] 100 % of control and 91 % of control | dose: 400.0 mg/kg/injection, schedule: Q04DX002 (ip), vehicle: saline with Tween-80 97 % of control and 108 % of control | [13] 97 % of control

O=C(O)c1ccc(C(=O)O)c(O)c1O
inactive: dose: 50.0 mg/kg/injection, schedule: Q01DX009 (ip), vehicle: saline 120 % of control | [15] 100 % of control | [16] 105 % of control | [1] 89 % of control | [19] 92 % of control | [20] 116 % of control | dose: 200.0 mg/kg/injection, schedule: Q04DX003 (ip), vehicle: saline 96 % of control | [23] 94 % of control

O=P(O)(O)OCC(O)CF (configuration not stated)
inactive: dose: 2.5 mg/kg/injection, schedule: Q01DX009 (ip), vehicle: saline 89 % of control | dose: 5.0 mg/kg/injection, schedule: Q01DX009 (ip), vehicle: saline 93 % of control | dose: 10.0 mg/kg/injection, schedule: Q01DX009 (ip), vehicle: saline 94 % of control | dose: 44.0 mg/kg/injection, schedule: Q04DX003 (ip), vehicle: saline 109 % of control | dose: 88.0 mg/kg/injection, schedule: Q04DX003 (ip), vehicle: saline 100 % of control | dose: 115.5 mg/kg/injection, schedule: Q04DX003 (ip), vehicle: saline 96 % of control | dose: 175.0 mg/kg/injection, schedule: Q04DX003 (ip), vehicle: saline 92 % of control

O=[N+]([O-])C1CC=CCC1c1ccc(C2CC=CCC2[N+](=O)[O-])cc1 (configuration not stated)
inactive: [14] 96 % of control | [18] 94 % of control | [22] 92 % of control

CCCCC(CC)CNCC(O)CNCC(CC)CCCC (configuration not stated)
inactive: [2] 88 % of control | [17] 108 % of control | [21] 101 % of control

CCCCCCCCCCCCCCCC(=O)OCCCCCCCCCCC
inactive: [9] 100 % of control | [11] 92 % of control | [13] 101 % of control

Cc1cccc(-c2nc3cc(Cl)ccc3c(=O)o2)c1
inactive: [4] 97 % of control | [6] 90 % of control

CCCCc1ccc(C2=CC(=O)C(c3ccc(CCCC)cc3)=CC2=O)cc1
inactive: [15] 98 % of control | [19] 95 % of control | [23] 97 % of control

O=C1CN(CN2CCCCC2)C(=O)CN1CN1CCCCC1
inactive: [3] 91 % of control | [4] 109 % of control | [5] 95 % of control | [6] 106 % of control | [7] 90 % of control

CN(C)N=Nc1cn(C2CC(O)C(CO)O2)c(=O)[nH]c1=O (configuration not stated)
inactive: dose: 100.0 mg/kg/injection, schedule: Q01DX005 (ip), vehicle: saline 95 % of control | dose: 200.0 mg/kg/injection, schedule: Q01DX005 (ip), vehicle: saline 101 % of control

CC1OC(=O)N(CCc2ccncc2)C1=O (configuration not stated)
inactive: dose: 100.0 mg/kg/injection, schedule: Q04DX002 (ip), vehicle: saline 93 % of control | dose: 200.0 mg/kg/injection, schedule: Q04DX002 (ip), vehicle: saline 93 % of control | dose: 400.0 mg/kg/injection, schedule: Q04DX002 (ip), vehicle: saline 97 % of control
